From patent publication US20050191628A1, “Antibiotics based upon bacteriophage lysis proteins” (priority 1999, published 2005) come the findings set out here.

For assay [1], the target named is T1, MraY (Escherichia coli, UniProt P0A6W3).
T1 construct: endogenous in cells; host or cells: E. coli K-12 ET505 (W3110 lysA::Tn10) membranes, carrying pJFlacZK (control) or pEmycZK (E-expressing)
T1 sequence (P0A6W3 1-360): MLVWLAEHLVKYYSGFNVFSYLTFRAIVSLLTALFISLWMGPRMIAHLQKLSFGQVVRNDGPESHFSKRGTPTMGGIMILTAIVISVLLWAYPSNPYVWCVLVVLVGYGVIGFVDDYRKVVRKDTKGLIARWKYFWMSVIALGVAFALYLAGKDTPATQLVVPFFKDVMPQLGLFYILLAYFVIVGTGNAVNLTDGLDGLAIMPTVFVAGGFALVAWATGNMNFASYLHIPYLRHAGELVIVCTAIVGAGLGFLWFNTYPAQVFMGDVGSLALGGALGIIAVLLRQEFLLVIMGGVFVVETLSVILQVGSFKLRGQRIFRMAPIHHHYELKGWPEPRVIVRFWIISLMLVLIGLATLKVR
The format is biochemical, E. coli. As to conditions: membranes of ET505 strains; average of 3 experiments ± standard deviation (tunicamycin: average of duplicates).

Assay [2] has as its target T2, Rfe (Escherichia coli, UniProt P0AC78).
T2 construct: endogenous in cells; host or cells: E. coli K-12 ET505 (W3110 lysA::Tn10) membranes, carrying pJFlacZK (control) or pEmycZK (E-expressing)
T2 sequence (P0AC78 1-367): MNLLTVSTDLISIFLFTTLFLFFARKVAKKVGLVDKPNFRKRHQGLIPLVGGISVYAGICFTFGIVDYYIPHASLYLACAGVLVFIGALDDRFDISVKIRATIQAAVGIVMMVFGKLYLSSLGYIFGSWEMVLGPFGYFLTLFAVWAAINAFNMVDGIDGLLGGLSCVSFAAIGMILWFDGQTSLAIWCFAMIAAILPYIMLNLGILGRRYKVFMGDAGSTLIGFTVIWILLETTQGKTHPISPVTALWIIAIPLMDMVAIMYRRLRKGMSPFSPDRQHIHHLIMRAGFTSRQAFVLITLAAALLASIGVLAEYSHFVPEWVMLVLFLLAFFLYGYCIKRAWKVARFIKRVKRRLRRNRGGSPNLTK
The format is biochemical, E. coli. Conditions: membranes of ET505 strains; average of 3 experiments ± standard deviation.

Turning to tunicamycin, in assay [1], the “cpm of [3H]-UMP converted to [3H]-UDP-MurNAc-pentapeptide in membrane preparations by MraY” value turned out to be 2000 cpm. Further, the “cpm of [3H]-UMP converted to [3H]-UDP-GlcNAc in membrane preparations by Rfe” value in assay [2] stood at 3400 ± 500 cpm.
